Experimental findings from patent US10174035B2, “6-morpholinyl-2-pyrazolyl-9H-purine derivatives and their use as PI3K inhibitors” (Daiichi Sankyo Company, Limited, priority 2015, dated 2019) are described below.

In the experiment the target is recombinant PI3K δ enzyme (Homo sapiens (Human), UniProt O00329). The experiment in a line: In vitro enzyme assay (Kinase-Glo luminescent kinase assay), PI3Kδ. Format: biochemical. On the procedure: The Kinase-Glo luminescent kinase assay kit (from Promega) was used to measure kinase activity. In this assay, amount of ATP remaining in solution following a kinase reaction is measured. The effect of compounds on PI3Kδ inhibition was carried out by adding 2.29 μg/ml of recombinant PI3K δ enzyme (Proteros, Germany) to reaction mixture containing assay buffer (50 mM HEPES, pH 7.4, 50 mM NaCl, 0.05% CHAPS) supplemented with 10 mM MgCl2, 5 mM DTT, 60 μM Phosphatidyl inositol bisphosphate (PIP2) and 10 μM ATP in the absence or presence of different concentrations of the compounds in a final volume of 15 μl/well, in a 384 well plate. The reaction mixture was incubated for 2 hours at room temperature. At the end of incubation period the equal volume of Kinase-Glo plus (Promega, V3772), was added per well and the luminescence was measured after incubating for 10 minutes at room temperature in dark. Results were calculated by measuring the luminescence units of test samples to blanks containing no enzyme.
Sequence of recombinant PI3K δ enzyme (O00329 whole entry, species assumed): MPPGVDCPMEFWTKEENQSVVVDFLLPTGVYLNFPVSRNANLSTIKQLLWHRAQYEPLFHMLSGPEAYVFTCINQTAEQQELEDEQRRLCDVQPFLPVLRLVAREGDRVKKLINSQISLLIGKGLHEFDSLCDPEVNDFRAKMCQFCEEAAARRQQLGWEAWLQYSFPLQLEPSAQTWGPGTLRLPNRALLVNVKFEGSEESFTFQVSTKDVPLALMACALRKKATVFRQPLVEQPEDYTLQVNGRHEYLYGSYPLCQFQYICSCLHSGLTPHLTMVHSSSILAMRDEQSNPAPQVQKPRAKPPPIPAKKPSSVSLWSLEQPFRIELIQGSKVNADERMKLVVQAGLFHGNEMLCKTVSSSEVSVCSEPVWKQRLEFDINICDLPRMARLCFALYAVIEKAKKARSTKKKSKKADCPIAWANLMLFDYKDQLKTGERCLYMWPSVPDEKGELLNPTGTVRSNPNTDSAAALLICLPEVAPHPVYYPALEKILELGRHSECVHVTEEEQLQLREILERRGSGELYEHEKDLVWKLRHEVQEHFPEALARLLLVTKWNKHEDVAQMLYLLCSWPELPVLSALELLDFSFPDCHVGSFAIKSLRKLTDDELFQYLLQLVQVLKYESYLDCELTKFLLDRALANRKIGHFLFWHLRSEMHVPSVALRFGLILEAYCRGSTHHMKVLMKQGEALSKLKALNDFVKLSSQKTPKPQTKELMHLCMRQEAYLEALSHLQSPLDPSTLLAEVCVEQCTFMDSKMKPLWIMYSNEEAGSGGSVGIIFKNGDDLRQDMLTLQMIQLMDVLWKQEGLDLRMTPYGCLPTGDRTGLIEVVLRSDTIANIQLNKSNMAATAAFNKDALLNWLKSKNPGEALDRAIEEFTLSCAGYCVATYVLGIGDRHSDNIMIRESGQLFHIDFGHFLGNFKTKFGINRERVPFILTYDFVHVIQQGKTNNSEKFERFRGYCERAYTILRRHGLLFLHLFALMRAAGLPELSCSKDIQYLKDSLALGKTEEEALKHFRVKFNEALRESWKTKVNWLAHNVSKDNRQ
Sequence of recombinant PI3K δ enzyme (P27986 whole entry partner, species assumed): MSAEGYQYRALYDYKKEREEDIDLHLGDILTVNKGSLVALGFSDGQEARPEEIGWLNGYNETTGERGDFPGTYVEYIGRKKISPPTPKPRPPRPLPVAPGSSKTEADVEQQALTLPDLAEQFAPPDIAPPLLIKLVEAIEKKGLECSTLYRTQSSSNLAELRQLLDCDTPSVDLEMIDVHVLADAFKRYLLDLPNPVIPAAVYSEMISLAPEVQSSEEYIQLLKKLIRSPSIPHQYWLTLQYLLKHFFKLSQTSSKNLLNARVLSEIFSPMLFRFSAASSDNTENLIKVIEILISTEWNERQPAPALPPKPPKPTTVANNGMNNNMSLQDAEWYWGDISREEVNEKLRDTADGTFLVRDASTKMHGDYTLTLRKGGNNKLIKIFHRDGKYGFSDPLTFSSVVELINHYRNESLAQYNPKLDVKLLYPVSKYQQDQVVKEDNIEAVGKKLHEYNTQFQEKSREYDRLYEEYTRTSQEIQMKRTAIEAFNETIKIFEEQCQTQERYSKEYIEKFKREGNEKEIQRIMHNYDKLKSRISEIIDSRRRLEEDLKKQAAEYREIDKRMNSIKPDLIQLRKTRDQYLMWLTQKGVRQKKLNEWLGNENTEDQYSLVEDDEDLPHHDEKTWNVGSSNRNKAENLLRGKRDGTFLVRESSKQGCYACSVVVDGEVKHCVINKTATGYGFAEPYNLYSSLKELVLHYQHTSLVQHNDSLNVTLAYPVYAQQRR
The compounds of the present invention were tested for their selectivity for PI3Kδ over PI3Kα, PI3Kβ and PI3Kγ following the above assay using specific recombinant enzymes (Proteros, Germany) for each kinase. Assay condition of kinase assay (PI3Kα, PI3Kβ, PI3Kγ and PI3Kδ) was as follows. Enzyme: 2.29 μg/mL; ATP: 10 μM; PIP2 substrate: 60 μM and Reaction Time: 2 hours.
Broadly, the IC50 is the concentration that gives 50% inhibition. As to `Cc1nn(C)c(C)c1-c1nc2[nH]c(C(=O)N3CCC(N4CCOCC4)CC3)nc2c(N2CCOCC2)c1F` [Compound No. 93], the IC50 was 26 nM.

For `C[C@@H]1CN(C2CN(C(=O)c3nc4c(N5CCOCC5)cc(-c5cnn(C)c5)nc4[nH]3)C2)C[C@H](C)O1` [Compound No. 119, {3-[(2R,6S)-2,6-dimethylmorpholin-4-yl]azetidin-1-yl}[5-(1-methyl-1H-pyrazol-4-yl)-7-(morpholin-4-yl)-3H-imidazo[4,5-b]pyridin-2-yl]methanone], the IC50 came to 5 nM.

`CN(C(=O)c1nc2c(N3CCOCC3)cc(-c3cnn(C)c3)nc2[nH]1)C1CCN(C2CCOCC2)CC1` [Compound No. 121, N-Methyl-5-(1-methyl-1H-pyrazol-4-yl)-7-(morpholin-4-yl)-N-[1-(tetrahydro-2H-pyran-4-yl)piperidin-4-yl]-3H-imidazo[4,5-b]pyridine-2-carboxamide]: the IC50 was determined as 52 nM.

With `Cn1cc(-c2cc(N3CCOCC3)c3nc(C(=O)N4CC(N5CCNC(=O)C5)C4)[nH]c3n2)cn1` [Compound No. 128, 4-(1-{[5-(1-Methyl-1H-pyrazol-4-yl)-7-(morpholin-4-yl)-3H-imidazo[4,5-b]pyridin-2-yl]carbonyl}azetidin-3-yl)piperazin-2-one], the IC50 was 19 nM.

On to `CN1CCN(C2CN(C(=O)c3nc4c(N5CCOCC5)cc(-c5cnn(C)c5)nc4[nH]3)C2)CC1=O` [Compound No. 129, 1-Methyl-4-(1-{[5-(1-methyl-1H-pyrazol-4-yl)-7-(morpholin-4-yl)-3H-imidazo[4,5-b]pyridin-2-yl]carbonyl}azetidin-3-yl)piperazin-2-one], for which the IC50 was 10 nM.

For `CN1CCN(C2CN(C(=O)c3nc4c(N5CCOCC5)nc(-c5cnn(C)c5)nc4[nH]3)C2)CC1=O` [Compound No. 130, 1-Methyl-4-(1-{[2-(1-methyl-1H-pyrazol-4-yl)-6-(morpholin-4-yl)-9H-purin-8-yl]carbonyl}azetidin-3-yl)piperazin-2-one], the IC50 stood at 10 nM.

As to `CN(C(=O)c1nc2c(N3CCOCC3)cc(-c3cnn(C)c3)nc2[nH]1)C1CCN(C2COC2)CC1` [Compound No. 131, N-Methyl-5-(1-methyl-1H-pyrazol-4-yl)-7-(morpholin-4-yl)-N-[1-(oxetan-3-yl)piperidin-4-yl]-3H-imidazo[4,5-b]pyridine-2-carboxamide], the IC50 stood at 146 nM.

Turning to `Cn1cc(-c2nc(N3CCOCC3)c3nc(C(=O)NCCc4cccnc4)[nH]c3n2)cn1` [compound 1, 2-(1-Methyl-1H-pyrazol-4-yl)-6-(morpholin-4-yl)-N-[2-(pyridin-3-yl)ethyl]-9H-purine-8-carboxamide], the IC50 worked out at 61 nM.

`Cn1cc(-c2nc(N3CCOCC3)c3nc(C(=O)NCCN4CCOCC4)[nH]c3n2)cn1` [compound 2, 2-(1-Methyl-1H-pyrazol-4-yl)-6-(morpholin-4-yl)-N-[2-(morpholin-4-yl)ethyl]-9H-purine-8-carboxamide]: the IC50 is 48 nM.

On to `Cn1cc(-c2nc(N3CCOCC3)c3nc(C(=O)N4CC(O)C4)[nH]c3n2)cn1` [compound 4, (3-Hydroxyazetidin-1-yl)[2-(1-methyl-1H-pyrazol-4-yl)-6-(morpholin-4-yl)-9H-purin-8-yl]methanone], for which the IC50 came out at 27 nM.

On to `Cn1cc(-c2nc(N3CCOCC3)c3nc(C(=O)N4CCN5C(=O)COC[C@H]5C4)[nH]c3n2)cn1` [compound 6, (9aR)-8-{[2-(1-Methyl-1H-pyrazol-4-yl)-6-(morpholin-4-yl)-9H-purin-8-yl]carbonyl}hexahydropyrazino[2,1-c][1,4]oxazin-4(3H)-one], for which the IC50 was 36 nM.

On to `Cn1cc(-c2nc(N3CCOCC3)c3nc(C(=O)N4CCC(N5CCOCC5=O)CC4)[nH]c3n2)cn1` [compound 7, 4-(1-{[2-(1-Methyl-1H-pyrazol-4-yl)-6-(morpholin-4-yl)-9H-purin-8-yl]carbonyl}piperidin-4-yl)morpholin-3-one], for which the IC50 is 42 nM.

`Cc1nn(C)cc1-c1nc(N2CCOCC2)c2nc(C(=O)N3CCN(C4CCOCC4)CC3)[nH]c2n1` [compound 9, [2-(1,3-Dimethyl-1H-pyrazol-4-yl)-6-(morpholin-4-yl)-9H-purin-8-yl][4-(tetrahydro-2H-pyran-4-yl)piperazin-1-yl]methanone]: the IC50 came to 9 nM.

With `Cn1cc(-c2nc(N3CCOCC3)c3nc(C(=O)N4CCN(C5CCOCC5)CC4)[nH]c3n2)cn1` [compound 11, [2-(1-Methyl-1H-pyrazol-4-yl)-6-(morpholin-4-yl)-9H-purin-8-yl][4-(tetrahydro-2H-pyran-4-yl)piperazin-1-yl]methanone], the concentration for half-maximal inhibition (IC50) is 26 nM.

As to `Cc1nn(C)cc1-c1nc(N2CCOCC2)c2nc(C(=O)N3CCC(C(C)(C)O)CC3)[nH]c2n1` [compound 12, [2-(1,3-Dimethyl-1H-pyrazol-4-yl)-6-(morpholin-4-yl)-9H-purin-8-yl][4-(2-hydroxypropan-2-yl)piperidin-1-yl]methanone], the IC50 worked out at 34 nM.

Regarding `Cn1cc(-c2nc(N3CCOCC3)c3nc(C(=O)N4CCC[C@H](N5CCOCC5)C4)[nH]c3n2)cn1` [compound 13, [2-(1-Methyl-1H-pyrazol-4-yl)-6-(morpholin-4-yl)-9H-purin-8-yl][(3S)-3-(morpholin-4-yl)piperidin-1-yl]methanone], the IC50 came to 88 nM.

For `Cn1cc(-c2nc(N3CCOCC3)c3nc(C(=O)N4CCS(=O)(=O)CC4)[nH]c3n2)cn1` [compound 15, (1,1-Dioxidothiomorpholin-4-yl)[2-(1-methyl-1H-pyrazol-4-yl)-6-(morpholin-4-yl)-9H-purin-8-yl]methanone], the IC50 came out at 123 nM.

Take `Cc1n[nH]c(C)c1-c1nc(N2CCOCC2)c2nc(C(=O)N3CCC(N4CCOCC4)CC3)[nH]c2n1` [compound 16, [2-(3,5-Dimethyl-1H-pyrazol-4-yl)-6-(morpholin-4-yl)-9H-purin-8-yl][4-(morpholin-4-yl)piperidin-1-yl]methanone]: the IC50 came out at 88 nM.

For the molecule `Cn1cc(-c2nc(N3CCOCC3)c3nc(C(=O)N4CCC(N5CCOCC5)CC4)[nH]c3n2)c(C(F)(F)F)n1` [compound 17, {2-[1-Methyl-3-(trifluoromethyl)-1H-pyrazol-4-yl]-6-(morpholin-4-yl)-9H-purin-8-yl}[4-(morpholin-4-yl)piperidin-1-yl]methanone], the IC50 is 12 nM.

In the case of `CC(C)n1cc(-c2nc(N3CCOCC3)c3nc(C(=O)N4CCC(N5CCOCC5)CC4)[nH]c3n2)cn1` [compound 18, [4-(Morpholin-4-yl)piperidin-1-yl]{6-(morpholin-4-yl)-2-[1-(propan-2-yl)-1H-pyrazol-4-yl]-9H-purin-8-yl}methanone], the IC50 was determined as 230 nM.

In the case of `Cn1cc(-c2nc(N3CCOCC3)c3nc(C(=O)N4CCNCC4)[nH]c3n2)cn1` [compound 20, [2-(1-Methyl-1H-pyrazol-4-yl)-6-(morpholin-4-yl)-9H-purin-8-yl](piperazin-1-yl)methanone], the IC50 stood at 86 nM.

Consider `CCn1c(C(=O)N2CCC(N(C)C)CC2)nc2c(N3CCOCC3)nc(-c3cnn(C)c3)nc21` [compound 21, [4-(Dimethylamino)piperidin-1-yl][9-ethyl-2-(1-methyl-1H-pyrazol-4-yl)-6-(morpholin-4-yl)-9H-purin-8-yl]methanone], for which the half-inhibitory concentration (IC50) worked out at 313 nM.

For `CCn1c(C(=O)N2CCC(N3CCOCC3)CC2)nc2c(N3CCOCC3)nc(-c3cnn(C)c3)nc21` [compound 22, [9-Ethyl-2-(1-methyl-1-pyrazol-4-yl)-6-(morpholin-4-yl)-9H-purin-8-yl][4-(morpholin-4-yl)piperidin-1-yl]methanone], the IC50 was found to be 368 nM.

Consider `Cn1cc(-c2nc(N3CCOCC3)c3nc(C(=O)N4CCC(N5CCOCC5)CC4)n(C)c3n2)cn1` [compound 23, [9-Methyl-2-(1-methyl-1H-pyrazol-4-yl)-6-(morpholin-4-yl)-9H-purin-8-yl][4-(morpholin-4-yl)piperidin-1-yl]methanone], for which the IC50 turned out to be 198 nM.

For `Cn1cc(-c2nc(N3CCOCC3)c3nc(C(=O)N4CCN(C(=O)c5ncccn5)CC4)[nH]c3n2)cn1` [compound 25, [2-(1-Methyl-1H-pyrazol-4-yl)-6-(morpholin-4-yl)-9H-purin-8-yl][4-(pyrimidin-2-ylcarbonyl)piperazin-1-yl]methanone], the half-inhibitory concentration (IC50) was determined as 99 nM.

On to `CC(=O)NC1CCN(C(=O)c2nc3c(N4CCOCC4)nc(-c4cnn(C)c4)nc3[nH]2)CC1` [compound 26, N-(1-{[2-(1-methyl-1H-pyrazol-4-yl)-6-(morpholin-4-yl)-9H-purin-8-yl]carbonyl}piperidin-4-yl)acetamide], for which the IC50 was determined as 101 nM.

With `Cn1cc(-c2nc(N3CCOCC3)c3nc(C(=O)N4CCN(c5ncccn5)CC4)[nH]c3n2)cn1` [compound 27, [2-(1-Methyl-1H-pyrazol-4-yl)-6-(morpholin-4-yl)-9H-purin-8-yl][4-(pyrimidin-2-yl)piperazin-1-yl]methanone], the IC50 was 128 nM.

Regarding `Cn1cc(-c2nc(N3CCOCC3)c3nc(C(=O)N4CCC(NS(C)(=O)=O)CC4)[nH]c3n2)cn1` [compound 28, N-(1-{[2-(1-methyl-1H-pyrazol-4-yl)-6-(morpholin-4-yl)-9H-purin-8-yl]carbonyl}piperidin-4-yl)methanesulfonamide], the IC50 was determined as 69 nM.
